# Measurements reported in US20250388574A1, “HETEROCYCLIC COMPOUNDS AS TRIGGERING RECEPTOR EXPRESSED ON MYELOID CELLS 2 AGONISTS AND METHODS OF USE” (AMGEN INC., priority 2020, published 2025).
# Molecular target: hTREM2 (Homo sapiens, UniProt Q9NZC2)
# Assay: Phospho-Syk AlphaScreen/AlphaLISA assay in TREM2 and DAP12 overexpressing HEK293 cells (Example A1)
# Type: cell-based
# Parameters: expressed in transfected cells
# Conditions: HEK293 cells; for EC50: read-out: hTREM2 EC50
# How it was run: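 Agonism read as Syk phosphorylation: compounds in 1% DMSO applied 45 min at room temperature to TREM2/DAP12-HEK293 cells after 20 h culture. Lysis buffer with phosphatase inhibitors and anti-phospho-Syk plus biotinylated anti-Syk antibodies, then AlphaLISA beads (680 nm excitation); percent of control computed from antibody/isotype wells, curves fitted sigmoidally.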
# Chain of hTREM2 (Q9NZC2 19-230): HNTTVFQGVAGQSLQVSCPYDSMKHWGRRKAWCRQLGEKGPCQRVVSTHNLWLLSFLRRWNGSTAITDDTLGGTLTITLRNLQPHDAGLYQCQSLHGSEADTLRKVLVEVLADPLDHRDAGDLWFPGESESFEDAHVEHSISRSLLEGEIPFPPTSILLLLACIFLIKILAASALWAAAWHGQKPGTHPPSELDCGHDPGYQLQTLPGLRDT
# Chain of hTREM2 (O43914 22-113 partner): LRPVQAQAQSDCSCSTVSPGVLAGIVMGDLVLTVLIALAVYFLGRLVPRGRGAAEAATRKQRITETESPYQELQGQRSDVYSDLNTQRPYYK
Structure (SMILES),Emax,EC50 [nM]
"Cc1nc2cc(N3CCO[C@@H](c4cnn(C5CN(C)C5)c4)C3)nc(-c3ccc(Cl)cc3F)c2c(=O)n1C [Example 138, 5-(4-chloro-2-fluorophenyl)-2,3-dimethyl-7-((2S)-2-(1-(1-methyl-3-azetidinyl)-1H-pyrazol-4-yl)-4-morpholinyl)pyrido[4,3-d]pyrimidin-4(3H)-one]",+++ (Emax>200 and ≤300),50 to 500
"COc1cccc([C@H]2CN(c3cc4nc(C)n(C)c(=O)c4c(-c4ccc(Cl)cc4F)n3)CCO2)c1 (single isomer, unassigned) [Example 80]",++++ (Emax>300),50 to 500
"Cc1nc2cc(N3CCC[C@H](c4cn[nH]c4)C3)nc(-c3ccc(Cl)cc3F)c2c(=O)n1C (single isomer, unassigned) [Example 108]",++++ (Emax>300),50 to 500
"Cc1nc2cc(N3CCO[C@H](c4cnn(C)c4)C3)cc(-c3ccc(Cl)cc3F)c2c(=O)n1C [Example 221, (R)-5-(4-chloro-2-fluorophenyl)-2,3-dimethyl-7-(2-(1-methyl-1H-pyrazol-4-yl)morpholino)quinazolin-4(3H)-one]",++++ (Emax>300),50 to 500
"Cc1nc2cc(N3CCO[C@@H](c4ccsc4)C3)nc(-c3ccc(Cl)cc3F)c2c(=O)n1C (single isomer, unassigned) [Example 55]",++++ (Emax>300),500 to 3000
"Cn1cc([C@H]2CN(c3cc4nc(C5CC5)n(C)c(=O)c4c(-c4ccc(Cl)cc4F)n3)CCO2)cn1 [Example 142, 5-(4-chloro-2-fluorophenyl)-2-cyclopropyl-3-methyl-7-((2S)-2-(1-methyl-1H-pyrazol-4-yl)-4-morpholinyl)pyrido[4,3-d]pyrimidin-4(3H)-one]",++++ (Emax>300),50 to 500
"CCCn1c(C)nc2cc(N3CCO[C@H](c4cnn(C)c4)C3)nc(-c3ncc(Cl)cc3F)c2c1=O [Example 215, (R)-5-(5-chloro-3-fluoropyridin-2-yl)-2-methyl-7-(2-(1-methyl-1H-pyrazol-4-yl)morpholino)-3-propylpyrido[4,3-d]pyrimidin-4(3H)-one]",++++ (Emax>300),3000 to 100000
"Cc1nc2cc(N3CCCC(N4CCC4)C3)nc(-c3ccc(Cl)cc3F)c2c(=O)n1C (stereo not shown) [Example 110, 7-(3-(1-azetidinyl)-1-piperidinyl)-5-(4-chloro-2-fluorophenyl)-2,3-dimethylpyrido[4,3-d]pyrimidin-4(3H)-one]",++++ (Emax>300),500 to 3000
"Cc1nc([C@@H]2CN(c3cc4nc(C)n(C)c(=O)c4c(-c4ccc(Cl)cc4F)n3)CCO2)no1 (single isomer, unassigned) [Example 57]",+++ (Emax>200 and ≤300),500 to 3000
"Cc1nc2cc(N3CCC(F)(F)[C@H](c4cnn(C)c4)C3)nc(-c3ccc(Cl)cc3F)c2c(=O)n1C (single isomer, unassigned) [Example 117]",+++ (Emax>200 and ≤300),< 50
"Cc1nc2cc(N3CCO[C@](C)(c4cnn(C)c4)C3)nc(-c3ccc(Cl)cc3F)c2c(=O)n1C [Example 225, (R)-5-(4-chloro-2-fluorophenyl)-2,3-dimethyl-7-(2-methyl-2-(1-methyl-1H-pyrazol-4-yl)morpholino)pyrido[4,3-d]pyrimidin-4(3H)-one]",++++ (Emax>300),500 to 3000
"Cc1nc2cc(N3CC[C@H](N4CCOCC4)C3)nc(-c3ccc(Cl)cc3F)c2c(=O)n1C [Example 208, (S)-5-(4-chloro-2-fluorophenyl)-2,3-dimethyl-7-(3-morpholinopyrrolidin-1-yl)pyrido[4,3-d]pyrimidin-4(3H)-one]",++ (Emax>100 and ≤200),3000 to 100000
"Cc1nc2cc(N3CCO[C@H](c4ccnc(OCC(F)(F)F)c4)C3)nc(-c3ccc(Cl)cc3F)c2c(=O)n1C (single isomer, unassigned) [Example 95]",++++ (Emax>300),50 to 500
"Cc1nc2cc(N3CCO[C@@H](c4cnn(C)c4)C3)nc(-c3cc(F)c(Cl)cc3F)c2c(=O)n1C [Example 11, 5-(4-chloro-2,5-difluorophenyl)-2,3-dimethyl-7-((2S)-2-(1-methyl-1H-pyrazol-4-yl)-4-morpholinyl)pyrido[4,3-d]pyrimidin-4(3H)-one]",++++ (Emax>300),50 to 500
"Cc1nc2cc(N3CCC[C@H](c4ccncc4)C3)nc(-c3ccc(Cl)cc3F)c2c(=O)n1C (single isomer, unassigned) [Example 114]",+++ (Emax>200 and ≤300),50 to 500
"Cc1nc2cc(N3CCO[C@H](c4cnn(C)c4)C3)nc(-c3ccccc3F)c2c(=O)n1C [Example 218, (R)-5-(2-fluorophenyl)-2,3-dimethyl-7-(2-(1-methyl-1H-pyrazol-4-yl)morpholino)pyrido[4,3-d]pyrimidin-4(3H)-one]",+++ (Emax>200 and ≤300),3000 to 100000
"Cc1nc2cc(N3CCO[C@H](c4cnn(C)c4)C3)nc(-c3ccc(Cl)cn3)c2c(=O)n1C [Example 211, (R)-5-(5-chloropyridin-2-yl)-2,3-dimethyl-7-(2-(1-methyl-1H-pyrazol-4-yl)morpholino)pyrido[4,3-d]pyrimidin-4(3H)-one]",+++ (Emax>200 and ≤300),3000 to 100000
"Cc1nc2cc(N3CCO[C@H](c4cnn(C)c4)C3)nc(-c3ccc(Cl)cc3)c2c(=O)n1C [Example 6, 5-(4-chlorophenyl)-2,3-dimethyl-7-((2R)-2-(1-methyl-1H-pyrazol-4-yl)-4-morpholinyl)pyrido[4,3-d]pyrimidin-4(3H)-one]",++ (Emax>100 and ≤200),500 to 3000
"CCCn1c(C)nc2cc(N3CCO[C@H](c4ccccc4)C3)nc(-c3ccc(Cl)cc3F)c2c1=O [Example 190, (R)-5-(4-chloro-2-fluorophenyl)-2-methyl-7-(2-phenylmorpholino)-3-propylpyrido[4,3-d]pyrimidin-4(3H)-one]",+++ (Emax>200 and ≤300),500 to 3000
"Cc1nc2cc(N3CCO[C@@H](c4cnn(C5CC5)c4)C3)nc(-c3ccc(Cl)cc3F)c2c(=O)n1C [Example 136, 5-(4-chloro-2-fluorophenyl)-7-((2S)-2-(1-cyclopropyl-1H-pyrazol-4-yl)-4-morpholinyl)-2,3-dimethylpyrido[4,3-d]pyrimidin-4(3H)-one]",++++ (Emax>300),< 50
"Cc1nc2cc(N3CCC[C@@H](c4ccncc4)C3)nc(-c3ccc(Cl)cc3F)c2c(=O)n1C (single isomer, unassigned) [Example 113]",++++ (Emax>300),50 to 500

# More lines, now with the values ahead:
Emax,EC50 [nM],Structure (SMILES)
++++ (Emax>300),< 50,"Cc1cc([C@H]2CN(c3cc4nc(C)n(C)c(=O)c4c(-c4ccc(Cl)cc4F)n3)CCO2)cc(C)n1 (single isomer, unassigned) [Example 77]"
++++ (Emax>300),50 to 500,"COc1cc([C@@H]2C[C@@H](c3cc4nc(C)n(C)c(=O)c4c(-c4ccc(Cl)cc4F)n3)CCO2)ccn1 [Example 268, 5-(4-chloro-2-fluorophenyl)-7-((2S,4S)-2-(2-methoxypyridin-4-yl)tetrahydro-2H-pyran-4-yl)-2,3-dimethylpyrido[4,3-d]pyrimidin-4(3H)-one]"
++++ (Emax>300),50 to 500,"Cc1nc2cc(N3CCO[C@@H](c4ccnc(Cl)c4)C3)nc(-c3ccc(Cl)cc3F)c2c(=O)n1C (single isomer, unassigned) [Example 89]"
++++ (Emax>300),50 to 500,"Cc1ccc(C2CN(c3cc4nc(C)n(C)c(=O)c4c(-c4ccc(Cl)cc4F)n3)CCO2)cn1 (stereo not shown) [Example 60, 5-(4-chloro-2-fluorophenyl)-2,3-dimethyl-7-(2-(6-methyl-3-pyridinyl)-4-morpholinyl)pyrido[4,3-d]pyrimidin-4(3H)-one]"
++++ (Emax>300),< 50,"COc1cc([C@@H]2CN(c3cc4nc(C)n(C)c(=O)c4c(-c4ccc(Cl)cc4F)n3)CCO2)ccn1 [Example 243, (R)-5-(4-chloro-2-fluorophenyl)-7-(2-(2-methoxypyridin-4-yl)morpholino)-2,3-dimethylpyrido[4,3-d]pyrimidin-4(3H)-one]"
++++ (Emax>300),50 to 500,"Cc1ccc([C@H]2C[C@@H](c3cc4nc(C)n(C)c(=O)c4c(-c4ccc(Cl)cc4F)n3)CCO2)cn1 [Example 273, 5-(4-chloro-2-fluorophenyl)-2,3-dimethyl-7-((2R,4S)-2-(6-methylpyridin-3-yl)tetrahydro-2H-pyran-4-yl)pyrido[4,3-d]pyrimidin-4(3H)-one]"
++++ (Emax>300),50 to 500,"COc1ccc([C@H]2CN(c3cc4nc(C)n(C)c(=O)c4c(-c4ccc(Cl)cc4F)n3)CCO2)cc1 (single isomer, unassigned) [Example 78]"
+++ (Emax>200 and ≤300),3000 to 100000,"Cc1nc2cc(N3CC[C@H](c4cnn(C)c4)C3)nc(-c3ccc(Cl)cc3F)c2c(=O)n1C [Example 202, (R)-5-(4-chloro-2-fluorophenyl)-2,3-dimethyl-7-(3-(1-methyl-1H-pyrazol-4-yl)pyrrolidin-1-yl)pyrido[4,3-d]pyrimidin-4(3H)-one]"
++++ (Emax>300),50 to 500,"Cc1ccc([C@@H]2C[C@H](c3cc4nc(C)n(C)c(=O)c4c(-c4ccc(Cl)cc4F)n3)CCO2)cn1 [Example 274, 5-(4-chloro-2-fluorophenyl)-2,3-dimethyl-7-((2S,4R)-2-(6-methylpyridin-3-yl)tetrahydro-2H-pyran-4-yl)pyrido[4,3-d]pyrimidin-4(3H)-one]"
+++ (Emax>200 and ≤300),< 50,"Cc1cc([C@H]2C[C@@H](c3cc4nc(C)n(C)c(=O)c4c(-c4ccc(Cl)cc4F)n3)CCO2)ccn1 (single isomer, unassigned) [Example 169]"
++++ (Emax>300),500 to 3000,"Cc1nc2cc([C@@H]3CCO[C@H](c4cccnc4)C3)nc(-c3ccc(Cl)cc3F)c2c(=O)n1C (single isomer, unassigned) [Example 178]"
